Literature values, collected in patent US20050003003A1, “Modulation of release from dry powder formulations” (Advanced Inhalation Research, Inc., priority 1999, published 2005).

conditions: Table 1, phospholipids with low transition temperatures

In order of falling “Transition Temperature” value:
1. CCCCCCCCCCCCCCCC(=O)OC[C@H](COP(=O)(O)OCC(O)CO)OC(=O)CCCCCCCCCCCCCCC (mixture of isomers) [DPPG, 1,2-Dipalmitoyl-sn-glycero-3-[phospho-rac-(1-glycerol)]]  41 °C
2. CCCCCCCCCCCCCCCC(=O)OC[C@H](COP(=O)([O-])OCC[N+](C)(C)C)OC(=O)CCCCCCCCCCCCCCC [DPPC, 1,2-Dipalmitoyl-sn-glycero-3-phosphocholine]  41 °C
3. CCCCCCCCCCCCCCCCCC(=O)O[C@H](COC(=O)CCCCCCCCCCCCC)COP(=O)([O-])OCC[N+](C)(C)C [1-Myristoyl-2-stearoyl-sn-glycero-3-phosphocholine]  40 °C
4. CCCCCCCCCCCCCC(=O)OC[C@H](COP(=O)(O)OC[C@H](N)C(=O)O)OC(=O)CCCCCCCCCCCCC [1,2-Dimyristoyl-sn-glycero-3-[phospho-L-serine]]  35 °C
5. CCCCCCCCCCCCCCCC(=O)O[C@H](COC(=O)CCCCCCCCCCCCC)COP(=O)([O-])OCC[N+](C)(C)C [1-Myristoyl-2-palmitoyl-sn-glycero-3-phosphocholine]  35 °C
6. CCCCCCCCCCCCCCC(=O)OC[C@H](COP(=O)([O-])OCC[N+](C)(C)C)OC(=O)CCCCCCCCCCCCCC [1,2-Dipentadecanoyl-sn-glycero-3-phosphocholine]  33 °C
7. CCCCCCCCCCCC(=O)OC[C@H](COP(=O)(O)O)OC(=O)CCCCCCCCCCC [DLPA, 1,2-Dilauroyl-sn-glycero-3-phosphate]  31 °C
8. CCCCCCCCCCCCCCCCCC(=O)OC[C@H](COP(=O)([O-])OCC[N+](C)(C)C)OC(=O)CCCCCCCCCCCCC [1-Stearoyl-2-myristoyl-sn-glycero-3-phosphocholine]  30 °C
9. CCCCCCCCCCCC(=O)OC[C@H](COP(=O)(O)OCCN)OC(=O)CCCCCCCCCCC [DLPE, 1,2-Dilauroyl-sn-glycero-3-phosphoethanolamine]  29 °C
10. CCCCCCCCCCCCCCCC(=O)OC[C@H](COP(=O)([O-])OCC[N+](C)(C)C)OC(=O)CCCCCCCCCCCCC [1-Palmitoyl-2-myristoyl-sn-glycero-3-phosphocholine]  27 °C
11. CCCCCCCCCCCCCC(=O)OC[C@H](COP(=O)(O)OCC(O)CO)OC(=O)CCCCCCCCCCCCC (mixture of isomers) [DMPG, 1,2-Dimyristoyl-sn-glycero-3-[phospho-rac-(1-glycerol)]]  23 °C
12. CCCCCCCCCCCCCC(=O)OC[C@H](COP(=O)([O-])OCC[N+](C)(C)C)OC(=O)CCCCCCCCCCCCC [DMPC, 1,2-Dimyristoyl-sn-glycero-3-phosphocholine]  23 °C
13. CCCCCCCCCCCCC(=O)OC[C@H](COP(=O)([O-])OCC[N+](C)(C)C)OC(=O)CCCCCCCCCCCC [1,2-Ditridecanoyl-sn-glycero-3-phosphocholine]  14 °C
14. CCCCCCCCCCCC(=O)OC[C@H](COP(=O)([O-])OCC[N+](C)(C)C)OC(=O)CCCCCCCCCCC [DLPC, 1,2-Dilauroyl-sn-glycero-3-phosphocholine]  −1 °C

same assay, conditions: Table 2, phospholipids with high transition temperatures

In order of rising “Transition Temperature” value:
1. CCCCCCCCCCCCCCCCC(=O)OC[C@H](COP(=O)([O-])OCC[N+](C)(C)C)OC(=O)CCCCCCCCCCCCCCCC [1,2-Diheptadecanoyl-sn-glycero-3-phosphocholine]  48 °C
2. CCCCCCCCCCCCCCCCCC(=O)O[C@H](COC(=O)CCCCCCCCCCCCCCC)COP(=O)([O-])OCC[N+](C)(C)C [1-Palmitoyl-2-stearoyl-sn-glycero-3-phosphocholine]  49 °C
3. CCCCCCCCCCCCCC(=O)OC[C@H](COP(=O)(O)O)OC(=O)CCCCCCCCCCCCC [DMPA, 1,2-Dimyristoyl-sn-glycero-3-phosphate]  50 °C
4. CCCCCCCCCCCCCC(=O)OC[C@H](COP(=O)(O)OCCN)OC(=O)CCCCCCCCCCCCC [DMPE, 1,2-Dimyristoyl-sn-glycero-3-phosphoethanolamine]  50 °C
5. CCCCCCCCCCCCCCCC(=O)OC[C@H](COP(=O)(O)OC[C@H](N)C(=O)O)OC(=O)CCCCCCCCCCCCCCC [1,2-Dipalmitoyl-sn-glycero-3-[phospho-L-serine]]  54 °C
6. CCCCCCCCCCCCCCCCCC(=O)OCC(COP(=O)(O)OCC(O)CO)OC(=O)CCCCCCCCCCCCCCCCC (racemic) [DSPG, 1,2-Distearoyl-sn-glycero-3-[phospho-rac-(1-glycerol)]]  55 °C
7. CCCCCCCCCCCCCCCCCC(=O)OC[C@H](COP(=O)([O-])OCC[N+](C)(C)C)OC(=O)CCCCCCCCCCCCCCCCC [DSPC, 1,2-Distearoyl-sn-glycero-3-phosphocholine]  55 °C
8. CCCCCCCCCCCCCCCC(=O)OC[C@H](COP(=O)(O)OCCN)OC(=O)CCCCCCCCCCCCCCC [DPPE, 1,2-Dipalmitoyl-sn-glycero-3-phosphoethanolamine]  63 °C
9. CCCCCCCCCCCCCCCC(=O)OC[C@H](COP(=O)(O)O)OC(=O)CCCCCCCCCCCCCCC [DPPA, 1,2-Dipalmitoyl-sn-glycero-3-phosphate]  67 °C
10. CCCCCCCCCCCCCCCCCC(=O)OC[C@H](COP(=O)(O)OC[C@H](N)C(=O)O)OC(=O)CCCCCCCCCCCCCCCCC [1,2-Distearoyl-sn-glycero-3-[phospho-L-serine]]  68 °C
11. CCCCCCCCCCCCCCCCCC(=O)OC[C@H](COP(=O)(O)OCCN)OC(=O)CCCCCCCCCCCCCCCCC [DSPE, 1,2-Distearoyl-sn-glycero-3-phosphoethanolamine]  74 °C

same assay, conditions: bulk hydrated state

For `CCCCCCCCCCCCCCCC(=O)OC[C@H](COP(=O)([O-])OCC[N+](C)(C)C)OC(=O)CCCCCCCCCCCCCCC` [DPPC, 1,2-Dipalmitoyl-sn-glycero-3-phosphocholine], the “transition temperature (Tc)” value is given as “approximately 41 °C”.
For `CCCCCCCCCCCCCCCC(=O)OC[C@H](COP(=O)(O)OCCN)OC(=O)CCCCCCCCCCCCCCC` [DPPE, 1,2-Dipalmitoyl-sn-glycero-3-phosphoethanolamine], the “transition temperature (Tc)” value is listed as “approximately 63 °C”.
For `CCCCCCCCCCCCCCCCCC(=O)OC[C@H](COP(=O)([O-])OCC[N+](C)(C)C)OC(=O)CCCCCCCCCCCCCCCCC` [DSPC, 1,2-Distearoyl-sn-glycero-3-phosphocholine], the “transition temperature (Tc)” value is given as “approximately 55 °C”.

same assay, conditions: phospholipid of the formulation

In order of falling theoretical transition:
1. CCCCCCCCCCCCCCCCCC(=O)OC[C@H](COP(=O)([O-])OCC[N+](C)(C)C)OC(=O)CCCCCCCCCCCCCCCCC [DSPC, 1,2-Distearoyl-sn-glycero-3-phosphocholine]  55 °C
2. CCCCCCCCCCCCCCCC(=O)OC[C@H](COP(=O)([O-])OCC[N+](C)(C)C)OC(=O)CCCCCCCCCCCCCCC [DPPC, 1,2-Dipalmitoyl-sn-glycero-3-phosphocholine]  41 °C
